What was measured:
[1] = system: diabetic neuropathy; assay: Clinical case reports of patients with diabetic neuropathy; format: in vivo, human; conditions: single patient case reports; result in words
From the text: The onset of neuropathy was thought to be due to poor control of diabetes. Neuropathic symptoms increased in severity over several years with development of severe diabetic neuropathy including diabetic amyotrophy, painful neuropathy with spasm, diabetic autonomic neuropathy and decreased sensation in the extremities, with numbing and loss of vibration sense. Electromyography confirmed the diagnosis of diabetic neuropathy.
A person with non-insulin dependent diabetes with very severe diabetic neuropathy, including diabetic amyotrophy and bedbound, resistant to current therapies, was commenced on vitamin B12 injections (1 mg at two-week intervals) and L-phenylalanine (as a metabolite of aspartame) 500 mg twice a day.
This case studied here is of the same person with diabetic neuropathy as in case #1, but after the original observation in case #1. The patient was subsequently continued on the same vitamin B12 injections and phenylalanine (500 mg twice daily) only.
A person with non-insulin dependent diabetes for 15 years with reasonable control, developed peripheral painful diabetic neuropathy of two months duration. […]
A person had severe diabetic peripheral neuropathy and resultant Charcot foot joints. […] Vibration sense initially could not be detected at a level below the knee.

[2] = system: diabetic neuropathy; conditions: cited from earlier work; for effectiveness against diabetic neuropathy symptoms: prior art statement
[3] = system: vitamin B12 neuropathy and mild alcoholic neuropathy; assay: Clinical case report, vitamin B12 neuropathy and mild alcoholic neuropathy (Case #4); format: in vivo, human; conditions: result in words
From the text: A person with vitamin B12 neuropathy and mild alcoholic neuropathy was studied. Clinical progress with vitamin B12 injections alone was insignificant. […] Previously they required the assistance of another person to walk.

[4] = system: neuropathy related to HIV; assay: Clinical case report, HIV related peripheral neuropathy (Case #9); format: in vivo, human; conditions: result in words
Method: A person was HIV positive and complained of moderate peripheral neuropathy including painful neuropathy. They also had mild diabetes of short duration but clinically their neuropathy was diagnosed as that related to HIV. […] They were additionally commenced on L-phenylalanine 500 mg twice daily, whereafter they reported an approximate further 50% improvement in the symptoms of their painful neuropathy.

Compound | clinical response of diabetic neuropathy signs and symptoms [1] | effectiveness against diabetic neuropathy symptoms [2] | further results
NC(=O)N1c2ccccc2C=Cc2ccccc21 [carbemazepine] | ineffective | only to be mildly effective | –
CN(C)CC/C=C1\c2ccccc2CSc2ccccc21 [dothiepin] | mild beneficial effect | – | –
Cc1cccc(C)c1OCC(C)N (centres unmarked) [mexilitene] | – | only to be mildly effective | –
vitamin B12 | – | – | clinical progress [3]: insignificant
CCCCC/C=C\C/C=C\C/C=C\CCCCC(=O)O [gamolenic acid] | – | may reduce symptoms | progression of abnormalities in nerve conduction studies ([2]; recent clinical trials): prevent the progression
CN(C)CCC=C1c2ccccc2CCc2ccccc21 [amitriptyline] | – | – | clinical effect on neuropathy [4]: some mild beneficial effects
